The test system of one data set is TET2^MT cells. As to the kind of experiment: In vitro toxicity to TET2^MT cells. The class given is cell-based.
The subject of data set [1] is α-KG-dependent histone dioxygenases (H3K4 methylation). As to the kind of experiment: Histone H3K4 methylation in treated cells. The class given is cell-based.

On to `O=C(O)CCC(O)C(=O)O` (centres unmarked) [2HG, 2-hydroxyglutarate], for which, in the data set with TET2^MT cells, the “LD50 for TET2^MT” value is reported as “in millimolar ranges”. For the compound `COC(=O)CNC(=O)C(=O)OC` [DMOG, methyl 2-[(2-methoxy-2-oxoethyl)amino]-2-oxoacetate], the “Change in H3K4 methylation” value in data set [1] is reported as “significantly affected”.

The values above are taken from publication PMC7935131 (Blood cancer discovery, 2020).
